Results from patent US4321208A, “Preparation of directly iodinated steroid hormones and related compounds” (priority 1976, dated 1982).

Legend:
[1] = system: breast cancer tumor tissue; conditions: injected; patients responding to endocrine treatment vs those who do not respond; cited from earlier work
anti-serum = conditions: Abraham and Odell; iodinated at positions 2 and 4; cited from earlier work
[2] = system: antiserum against estradiol-17 beta; assay: Radioimmunoassay: competition of nonradioactive estradiol with ^125 I estradiol-17 beta for antiserum; type: binding; conditions: antiserum 1:10,000 or 1:20,000; ^125 I estradiol-17 beta 70 Ci/mM
Method: The procedure of this assay are identical as described by the instant inventor and authors C. […] After incubation, the unbound hormone was removed by charcoal adsorption.

C[C@]12CC[C@@H]3c4ccc(O)cc4CC[C@H]3[C@@H]1CC[C@@H]2O [tritiated estradiol]
concentration of tritiated hormone in tumor tissue [1]: usually concentrate more tritiated hormones in their tumor tissue

C[C@]12CC[C@@H]3c4cc(I)c(O)c(I)c4CC[C@H]3[C@@H]1CC[C@@H]2O
binding to anti-serum (anti-serum): unable to bind the anti-serum

C[C@]12CC[C@@H]3c4ccc(O)cc4CC[C@H]3[C@@H]1CC[C@@H]2O [unlabelled estradiol, estradiol]
effect of unlabelled estradiol on percent bound ^125 I estradiol [2]: the percent bound ^125 I estradiol decreases
